Counter-ions that a name gives are not always drawn. Where only a bound is given, the exact number is not on record here.

One experiment deals with T1, human Nav1.8 (hNav1.8) ion channel (Homo sapiens, UniProt Q9Y5Y9).
T1 construct: expressed in transfected cells
T1 sequence (Q9Y5Y9 whole entry): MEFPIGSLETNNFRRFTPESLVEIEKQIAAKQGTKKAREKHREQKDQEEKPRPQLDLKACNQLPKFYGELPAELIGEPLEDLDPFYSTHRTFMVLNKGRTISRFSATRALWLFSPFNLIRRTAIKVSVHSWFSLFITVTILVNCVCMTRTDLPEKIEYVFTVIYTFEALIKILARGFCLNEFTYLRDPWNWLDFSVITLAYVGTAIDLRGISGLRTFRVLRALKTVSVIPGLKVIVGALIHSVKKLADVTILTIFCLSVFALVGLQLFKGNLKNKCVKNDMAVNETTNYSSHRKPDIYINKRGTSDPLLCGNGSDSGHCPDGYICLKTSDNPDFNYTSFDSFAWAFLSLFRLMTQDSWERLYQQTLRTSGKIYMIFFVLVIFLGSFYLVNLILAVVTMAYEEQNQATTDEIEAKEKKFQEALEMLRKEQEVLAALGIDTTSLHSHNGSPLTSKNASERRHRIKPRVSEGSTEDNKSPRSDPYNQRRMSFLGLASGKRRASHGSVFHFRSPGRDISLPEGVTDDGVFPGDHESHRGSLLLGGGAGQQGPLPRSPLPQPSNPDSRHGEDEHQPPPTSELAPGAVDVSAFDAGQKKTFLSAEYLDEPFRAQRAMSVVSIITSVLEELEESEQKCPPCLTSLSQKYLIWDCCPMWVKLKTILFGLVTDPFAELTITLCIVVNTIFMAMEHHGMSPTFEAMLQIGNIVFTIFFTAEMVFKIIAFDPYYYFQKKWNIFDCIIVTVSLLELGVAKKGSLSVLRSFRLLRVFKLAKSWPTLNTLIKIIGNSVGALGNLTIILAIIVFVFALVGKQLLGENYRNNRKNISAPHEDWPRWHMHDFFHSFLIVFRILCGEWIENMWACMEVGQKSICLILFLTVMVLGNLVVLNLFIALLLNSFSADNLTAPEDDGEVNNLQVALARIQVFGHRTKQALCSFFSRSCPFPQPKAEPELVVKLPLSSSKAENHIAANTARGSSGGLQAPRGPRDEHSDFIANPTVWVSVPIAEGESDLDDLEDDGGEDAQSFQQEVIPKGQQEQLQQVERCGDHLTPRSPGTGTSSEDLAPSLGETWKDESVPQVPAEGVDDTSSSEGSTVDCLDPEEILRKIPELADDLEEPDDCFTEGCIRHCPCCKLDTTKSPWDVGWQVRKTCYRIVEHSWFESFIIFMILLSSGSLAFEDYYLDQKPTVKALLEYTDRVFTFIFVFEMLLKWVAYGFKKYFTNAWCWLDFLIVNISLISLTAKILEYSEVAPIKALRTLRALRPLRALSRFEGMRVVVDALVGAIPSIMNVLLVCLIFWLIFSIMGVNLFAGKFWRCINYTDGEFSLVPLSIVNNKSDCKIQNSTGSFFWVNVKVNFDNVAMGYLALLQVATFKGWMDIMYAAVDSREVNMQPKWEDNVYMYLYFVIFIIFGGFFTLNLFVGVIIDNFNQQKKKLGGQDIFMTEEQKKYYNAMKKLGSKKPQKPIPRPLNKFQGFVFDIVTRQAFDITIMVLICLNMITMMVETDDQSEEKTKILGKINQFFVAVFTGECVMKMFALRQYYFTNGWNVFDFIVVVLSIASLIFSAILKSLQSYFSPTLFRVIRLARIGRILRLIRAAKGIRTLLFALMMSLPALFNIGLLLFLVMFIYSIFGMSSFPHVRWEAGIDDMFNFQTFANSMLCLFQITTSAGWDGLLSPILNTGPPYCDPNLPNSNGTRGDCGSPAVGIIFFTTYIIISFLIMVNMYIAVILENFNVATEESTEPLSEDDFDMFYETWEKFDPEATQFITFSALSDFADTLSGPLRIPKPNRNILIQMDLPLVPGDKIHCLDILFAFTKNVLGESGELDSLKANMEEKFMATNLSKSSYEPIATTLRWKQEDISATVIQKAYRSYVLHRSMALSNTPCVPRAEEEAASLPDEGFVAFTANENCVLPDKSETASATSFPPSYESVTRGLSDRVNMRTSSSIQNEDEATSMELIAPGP
Kind of experiment: Inhibition of human Nav1.8 stably expressed in SH-SY-5Y cells (membrane potential dye fluorescence assay). It counts as cell-based. As to conditions: SH-SY-5Y hNav1.8 cells; FLIPR membrane potential dye; 10 μM pyrethroid, 250 nM TTX; test concentration range 100 μM-0.05 μM; read-out: hNav1.8 IC50.
“1-{5-[1-(2,5-Dichloro-phenyl)-ethyl]-2,5-diaza-bicyclo[2.2.1]hept-2-yl}-2-[4-(4-fluoro-phenoxy)-phenyl]-ethanone [Example 157]”: the IC50 (usually the concentration that gives 50% inhibition) was at least 30000 nM.

As to `CC(c1ccc(F)cc1)N1CC2CC1CN2C(=O)Nc1cccc(Oc2ccccc2)c1` (centres unmarked) [Example 52, 5-[1-(4-Fluoro-phenyl)-ethyl]-2,5-diaza-bicyclo[2.2.1]heptane-2-carboxylic acid (3-phenoxy-phenyl)-amide], the IC50 amounted to 900 nM.

As for `CC(c1ccccc1C(F)(F)F)N1CC2CC1CN2C(=O)Nc1cccc(Oc2ccccc2)c1` (centres unmarked) [Example 61, 5-[1-(2-Trifluoromethyl-phenyl)-ethyl]-2,5-diaza-bicyclo[2.2.1]heptane-2-carboxylic acid (3-phenoxy-phenyl)-amide], the half-inhibitory concentration (IC50) was 4640 nM.

Regarding `CC(c1ccccc1Cl)N1CC2CC1CN2C(=O)Nc1ccc(Oc2ccc(F)cc2)nc1` (centres unmarked) [Example 182, 5-[1-(2-Chloro-phenyl)-ethyl]-2,5-diaza-bicyclo[2.2.1]heptane-2-carboxylic acid [6-(4-fluoro-phenoxy)-pyridin-3-yl]-amide methanesulfonate salt], the IC50 was 270 nM.

For the compound `CC(Cc1ccc(Cl)cc1)N1CC2CC1CN2C(=O)Nc1ccc(C(F)(F)F)cc1` (centres unmarked) [Example 83, 5-[2-(4-Chloro-phenyl)-1-methyl-ethyl]-2,5-diaza-bicyclo[2.2.1]heptane-2-carboxylic acid (4-trifluoromethyl-phenyl)-amide], the IC50 came out at 680 nM.

Consider `O=C(Nc1ccc(C(F)(F)F)cc1)N1CC2CC1CN2C1CCc2cc(F)ccc2C1` (centres unmarked) [Example 100, 5-(6-Fluoro-1,2,3,4-tetrahydro-naphthalen-2-yl)-2,5-diaza-bicyclo[2.2.1]heptane-2-carboxylic acid (4-trifluoromethyl-phenyl)-amide], for which the half-inhibitory concentration (IC50) was determined as 640 nM.

In the case of `CC(c1c(F)cccc1Cl)N1CC2CC1CN2C(=O)c1ccc(Oc2ccc(F)cc2)cc1` (centres unmarked) [Example 167, {5-[1-(2-Chloro-6-fluoro-phenyl)-ethyl]-2,5-diaza-bicyclo[2.2.1]hept-2-yl}-[4-(4-fluoro-phenoxy)-phenyl]-methanone], the IC50 amounted to 2220 nM.

Turning to `CC(c1ccccc1Cl)N1CC2CC1CN2C(=O)c1cc2ccccc2[nH]1` (centres unmarked) [Example 149, {5-[1-(2-Chloro-phenyl)-ethyl]-2,5-diaza-bicyclo[2.2.1]hept-2-yl}-(1H-indol-2-yl)-methanone], the IC50 was found to be 5840 nM.

As for `CC(c1ccc(Cl)cc1Cl)N1CC2CC1CN2C(=O)Nc1ccc(Oc2ccc(F)cc2)cc1` (centres unmarked) [Example 119, 5-[1-(2,4-Dichloro-phenyl)-ethyl]-2,5-diaza-bicyclo[2.2.1]heptane-2-carboxylic acid [4-(4-fluoro-phenoxy)-phenyl]-amide], the concentration for half-maximal inhibition (IC50) was 20900 nM.

On to `CC(c1ccccc1Cl)N1CC2CC1CN2C(=O)c1ccc(Oc2ccc(F)cc2)c(F)c1` (single isomer, unassigned) [Example 176, {5-[1-(2-Chloro-phenyl)-ethyl]-2,5-diaza-bicyclo[2.2.1]hept-2-yl}-[3-fluoro-4-(4-fluoro-phenoxy)-phenyl]-methanone], for which the concentration for half-maximal inhibition (IC50) came out at 430 nM.

In the case of `Cc1ccccc1C(C)N1CC2CC1CN2C(=O)Nc1ccc(-c2ccccc2)cc1` (centres unmarked) [Example 39, 5-(1-o-Tolyl-ethyl)-2,5-diaza-bicyclo[2.2.1]heptane-2-carboxylic acid biphenyl-4-ylamide], the 50% inhibitory concentration (IC50) is 1060 nM.

As to `C=CCOc1ccc(NC(=O)N2CC3CC2CN3C(C)c2ccccc2C)cc1` (centres unmarked) [Example 20, 5-(1-o-Tolyl-ethyl)-2,5-diaza-bicyclo[2.2.1]heptane-2-carboxylic acid (4-allyloxy-phenyl)-amide], the half-maximal inhibitory concentration (IC50) stood at 3420 nM.

Consider `CC(c1ccccc1Cl)N1CC2CC1CN2C(=O)c1ccc(Oc2cccc(C#N)c2)cc1` (centres unmarked) [Example 174, 3-(4-{5-[1-(2-Chloro-phenyl)-ethyl]-2,5-diaza-bicyclo[2.2.1]heptane-2-carbonyl}-phenoxy)-benzonitrile], for which the IC50 was determined as 1400 nM.

Regarding `Cc1ccc(C(C)N2CC3CC2CN3C(=O)Nc2ccc(Oc3ccc(F)cc3)cc2)c(C)c1` (centres unmarked) [Example 117, 5-[1-(2,4-Dimethyl-phenyl)-ethyl]-2,5-diaza-bicyclo[2.2.1]heptane-2-carboxylic acid [4-(4-fluoro-phenoxy)-phenyl]-amide], the half-inhibitory concentration (IC50) turned out to be 420 nM.

Take `CC(c1ccccc1Br)N1CC2CC1CN2C(=O)c1ccc(Oc2ccccc2)cc1` (centres unmarked) [Example 159, {5-[1-(2-Bromo-phenyl)-ethyl]-2,5-diaza-bicyclo[2.2.1]hept-2-yl}-(4-phenoxy-phenyl)-methanone]: the IC50 was 14800 nM.

Regarding `CC(c1ccc(F)cc1)N1CC2CC1CN2C(=O)Nc1ccc(C(F)(F)F)cc1` (centres unmarked) [Example 53, 5-[1-(4-Fluoro-phenyl)-ethyl]-2,5-diaza-bicyclo[2.2.1]heptane-2-carboxylic acid (4-trifluoromethyl-phenyl)-amide], the half-maximal inhibitory concentration (IC50) was determined as 2500 nM.

As for `CC(c1ccccc1C(F)(F)F)N1CC2CC1CN2C(=O)Nc1cccc(C(F)(F)F)c1` (centres unmarked) [Example 55, 5-[1-(2-Trifluoromethyl-phenyl)-ethyl]-2,5-diaza-bicyclo[2.2.1]heptane-2-carboxylic acid (3-trifluoromethyl-phenyl)-amide], the IC50 was found to be 4240 nM.

As to `CC(c1ccccc1Cl)N1CC2CC1CN2C(=O)c1ccc(Oc2cccc(C#N)c2)cc1` (centres unmarked) [Example 173, 3-(4-{5-[1-(2-Chloro-phenyl)-ethyl]-2,5-diaza-bicyclo[2.2.1]heptane-2-carbonyl}-phenoxy)-benzonitrile], the IC50 came to 1930 nM.

For the compound `O=C(Nc1ccc(Oc2ccccc2)cc1)N1CCC2(CCN(Cc3ccccc3)C2)C1` (centres unmarked) [Example 88, 7-Benzyl-2,7-diaza-spiro[4.4]nonane-2-carboxylic acid (4-phenoxy-phenyl)-amide], the half-maximal inhibitory concentration (IC50) was 390 nM.

Turning to `CC(c1ccc(C#N)cc1)N1CC2CC1CN2C(=O)Nc1ccc(Oc2ccc(F)cc2)cc1` (centres unmarked) [Example 91, 5-[1-(4-Cyano-phenyl)-ethyl]-2,5-diaza-bicyclo[2.2.1]heptane-2-carboxylic acid [4-(4-fluoro-phenoxy)-phenyl]-amide], the half-maximal inhibitory concentration (IC50) was determined as 1050 nM.

With `O=C(Nc1ccc(Oc2ccccc2F)cc1)N1CC2CC1CN2C1Cc2ccccc2C1` (centres unmarked) [Example 113, 5-Indan-2-yl-2,5-diaza-bicyclo[2.2.1]heptane-2-carboxylic acid [4-(2-fluoro-phenoxy)-phenyl]-amide], the IC50 was determined as 540 nM.

As to `Cc1ccccc1C(C)N1CC2CC1CN2C(=O)NC(C)c1ccc(F)cc1` (centres unmarked) [Example 69, 5-(1-o-Tolyl-ethyl)-2,5-diaza-bicyclo[2.2.1]heptane-2-carboxylic acid [1-(4-fluoro-phenyl)-ethyl]-amide], the IC50 is 17100 nM.

With `CC(c1ccccc1Cl)N1CC2CC1CN2C(=O)c1ccc(Oc2ccc(F)cc2)c(F)c1` (single isomer, unassigned) [Example 177, {5-[1-(2-Chloro-phenyl)-ethyl]-2,5-diaza-bicyclo[2.2.1]hept-2-yl}-[3-fluoro-4-(4-fluoro-phenoxy)-phenyl]-methanone], the IC50 turned out to be 740 nM.

`CCOCCOCCOc1ccc(NC(=O)N2CC3CC2CN3C(C)c2ccccc2C)cc1` (centres unmarked) [Example 16, 5-(1-o-Tolyl-ethyl)-2,5-diaza-bicyclo[2.2.1]heptane-2-carboxylic acid {4-[2-(2-ethoxy-ethoxy)-ethoxy]-phenyl}-amide]: the 50% inhibitory concentration (IC50) came out at 25600 nM.

For `C=CCOC(=O)NCCOc1ccc(NC(=O)N2CC3CC2CN3C(C)c2ccccc2C)cc1` (centres unmarked) [Example 28, [2-(4-{[5-(1-o-Tolyl-ethyl)-2,5-diaza-bicyclo[2.2.1]heptane-2-carbonyl]-amino}-phenoxy)-ethyl]-carbamic acid allyl ester], the IC50 is 4890 nM.

As to `CC(Cc1ccc(F)cc1)N1CC2CC1CN2C(=O)Nc1ccc(C(F)(F)F)cc1` (centres unmarked) [Example 80, 5-[2-(4-Fluoro-phenyl)-1-methyl-ethyl]-2,5-diaza-bicyclo[2.2.1]heptane-2-carboxylic acid (4-trifluoromethyl-phenyl)-amide], the half-inhibitory concentration (IC50) turned out to be 490 nM.

`CC(c1ccccc1Cl)N1CC2CC1CN2C(=O)c1ccc(Oc2cccc(F)c2)cc1` (centres unmarked) [Example 169, {5-[1-(2-Chloro-phenyl)-ethyl]-2,5-diaza-bicyclo[2.2.1]hept-2-yl}-[4-(3-fluoro-phenoxy)-phenyl]-methanone]: the IC50 was 840 nM.

`CC(c1ccc(F)cc1Cl)N1CC2CC1CN2C(=O)Nc1ccc(Oc2ccc(F)cc2)cc1` (centres unmarked) [Example 132, 5-[1-(2-Chloro-4-fluoro-phenyl)-ethyl]-2,5-diaza-bicyclo[2.2.1]heptane-2-carboxylic acid [4-(4-fluoro-phenoxy)-phenyl]-amide]: the concentration for half-maximal inhibition (IC50) came to 1140 nM.

The same experiment, now with this note: hNav1.8 IC50, SH-SY-5Y hNav1.8 cells; FLIPR membrane potential dye; 10 μM pyrethroid, 250 nM TTX; test concentration range 100 μM-0.05 μM.
`CC(c1ccccc1Cl)N1CC2CC1CN2C(=O)Cc1ccc(Oc2ccc(F)cc2)cc1` (centres unmarked) [Example 136, 1-{5-[1-(2-Chloro-phenyl)-ethyl]-2,5-diaza-bicyclo[2.2.1]hept-2-yl}-2-[4-(4-fluoro-phenoxy)-phenyl]-ethanone] returned a 50% inhibitory concentration (IC50) of 2410 nM.

In turn, `O=C(Cc1ccc(C(F)(F)F)cc1)N1CC2CC1CN2C1CCc2ccc(F)cc2C1` (centres unmarked) [Example 148, 1-[5-(7-Fluoro-1,2,3,4-tetrahydro-naphthalen-2-yl)-2,5-diaza-bicyclo[2.2.1]hept-2-yl]-2-(4-trifluoromethyl-phenyl)-ethanone] had an IC50 of 2390 nM.

Compound `CC(c1ccc(F)cc1Cl)N1CC2CC1CN2C(=O)Cc1ccc(Oc2ccc(F)cc2)cc1` (single isomer, unassigned) [Example 162, 1-{5-[1-(2-Chloro-4-fluoro-phenyl)-ethyl]-2,5-diaza-bicyclo[2.2.1]hept-2-yl}-2-[4-(4-fluoro-phenoxy)-phenyl]-ethanone] displayed an IC50 of 18300 nM.

For `Cc1ccccc1C(C)N1CC2CC1CN2C(=O)Nc1ccc(Oc2ccc(F)cc2)cc1` (centres unmarked) [Example 87, 5-(1-o-Tolyl-ethyl)-2,5-diaza-bicyclo[2.2.1]heptane-2-carboxylic acid [4-(4-fluoro-phenoxy)-phenyl]-amide methanesulfonate salt], the half-inhibitory concentration (IC50) was 600 nM.
